Results published in patent US8674136B2, “Aromatic butan-2-ol compounds and preparation and uses thereof” (Institute of Pharmacology and Toxicology Academy of …, priority 2010, dated 2014).
≈ marks a conversion by molar mass, not a printed value.

What was measured:
[1] = test system: Standard Strain H37Rv of mycobacterium tuberculosis; assay: MIC against standard strain H37Rv by Microplate Alamar Blue Assay (MABA); format: cell-based; conditions: M. tuberculosis H37Rv, 7H9 medium, 37° C.
male BALB/C mice = assay: Acute toxicity in mice, single oral intragastric administration; format: in vivo; conditions: observed 7 days
Experimental: (§1) Experiments on the Acute Toxicity of the Compounds
(§2) The acute toxicities of Compounds 4, 16 and 25 were in vivo evaluated preliminarily in mice. Animal: male BALB/C mice, 18-20 g/mouse, 3 mice for blank control group, and 5 mice for each of test groups.
(§3) Method: Suspensions of Compound 25: 49 mg/ml (depended on the total amount of the compound provided); Compounds 4 and 16: 50 mg/ml were prepared in 0.5% CMC to separately. Each mouse of the 3 groups was subjected to oral intragastric administration of 0.2 ml of drug, and the doses were separately as follows: Compound 25: 490 mg/kg; and Compounds 4 and 16: 500 mg/kg. The blank control was administered with water. The consciousness, behavior and death of mice were observed every day after administration until 7 days of administration, and the survived mice were dissected after 7 days to observe pathological changes of tissues.

[2] = as above; format: in vivo; conditions: male, BALB/C, mouse, in vivo, single oral intragastric administration, preliminary
Experimental: as §1, §2, §3

Row | SMILES | melting point [°C] | MIC [1] [µg/mL] | death or abnormality of the animals (male BALB/C mice; single dose of 490 mg/kg) | LD50 at 7 days [2] [mg/kg] | death or abnormality of the animals (male BALB/C mice; single dose of 500 mg/kg)
1 | COc1cc2ccccc2cc1C(c1ccc(Cl)cc1)C(O)(CCN(C)C)c1ccc(F)cc1F (stereo not shown) [Compound 14, 1-(4-chlorophenyl)-2-(2,4-difluorophenyl)-1-[2-(3-methoxy)naphthyl]-4-(N,N-dimethylamino)-butan-2-ol] | 190.6 to 192.4 | 0.754 (≈ 1.52 µM) |  |  | 
2 | COc1cc2ccc(Br)cc2cc1C(c1ccccc1)C(O)(CCN(C)C)c1cccc2ccccc12 (stereo not shown) [Compound 25, 1-phenyl-2-(1-naphthyl)-1-[2-(7-bromo-3-methoxy)naphthyl]-4-(N,N-dimethylamino)-butan-2-ol] |  | 0.594 (≈ 1.07 µM) | no death nor abnormality | ≥ 490 | 
3 | COc1cc2ccc(Br)cc2cc1C(c1ccc(C)cc1)C(O)(CCN(C)C)c1cccc2ccccc12 (stereo not shown) [Compound 30, 1-(4-methylphenyl)-2-(1-naphthyl)-1-[2-(7-bromo-3-methoxy)naphthyl]-4-(N,N-dimethylamino)-butan-2-ol] | 189.5 to 190.8 | 1.000 (≈ 1.76 µM) |  |  | 
4 | COc1cc2ccc(Br)cc2cc1C(c1ccc(Cl)cc1)C(O)(CCN(C)C)c1cccc(Br)c1 (stereo not shown) [Compound 16, 1-(4-chlorophenyl)-2-(3-bromophenyl)-1-[2-(7-bromo-3-methoxy)naphthyl]-4-(N,N-dimethylamino)-butan-2-ol] |  | 0.184 (≈ 0.298 µM) |  | ≥ 500 | no death nor abnormality
